Measurements taken from patent publication US20260083704A1, “LXR MODULATORS WITH BICYCLIC CORE MOIETY FOR TREATING DYSLIPIDEMIAS” (OrsoBio, Inc., priority 2022, published 2026).
Entries after “also recorded” stand apart in the source; their conditions may differ.

System: healthy subjects
Assay: Phase 1 study, MAD cohorts: serum lipid parameters by NMR LipoProfile
Format: in vivo, human
Conditions: Day 1 to Day 14
Method: Lipid parameters, including apolipoprotein B (apoB), were evaluated by NMR LipoProfile® (Labcorp, Burlington, NC. Plasma ApoC3 and ANGPTL3 were evaluated by ELISA (360biolabs, Melbourne, Australia). Peripheral RCT (reverse cholesterol transport) were evaluated by assessing changes in expression of ABCA1/ABCG1 in PBMCs, predose and 4 hours postdose on Days 1 and 14 (Gnomix, Bedford Park, Australia).
Methods. In a randomized, double-blind, placebo (PBO)-controlled Phase 1 study, healthy subjects (n=8/2 Compound 21/3 vs PBO/cohort) received single ascending doses (SAD) of Compound 21/3 (0.5, 2, 6, 12, or 20 mg) or multiple ascending doses (MAD) QD for 14 days (0.5, 2, 6, or 12 mg) while fed or 6 mg fasted. Safety, PK, serum lipid parameters by NMR LipoProfile®, and gene expression in PBMCs were evaluated.
Results. The proportion of subjects with adverse events (AEs) was 60% with PBO and 13-50% with Compound 21/3 in the SAD cohorts (n=50), and 40% and 13-88%, respectively, in the MAD cohorts (n=50). All AEs were mild except an unrelated, Grade 2 thrombophlebitis in a subject on Compound 21/3 2 mg. […] With fasted dosing, exposures were similar on Days 1 and 14 and ˜3-fold higher than with fed dosing. […] In FIG. 13A-13H, figures on graphs indicate median relative (%) change in predose NMR Lipoprofile® parameter from Day 1 to Day 14. […]

With `N#Cc1cccc(C#N)c1-c1c(-c2cccc(-c3ccc(C(=O)NCC(=O)O)cc3Cl)c2)n(S(=O)(=O)c2ccc(C(F)F)cc2)c2ccc(F)cc12` [Compound 21/3] the HDL-C was “not HDL-C” and the “serum triglycerides, total and LDL-C, total and small LDL particles, TG/HDL-C ratio” value was “Significant, dose-dependent reductions; also recorded: significant, dose-dependent improvements”.
